{
  "source": "ChEMBL document CHEMBL1154466",
  "about": "“3D and quantum QSAR of non-benzodiazepine compounds” (Eur J Med Chem, 2008)",
  "note": "Several values for one entry are separate records, joined by “and”; a condition that tells them apart may be missing. Equal entries are not always repeated.",
  "data": [
    {"test": "Displacement of [3H]diazepam from benzodiazepine receptor", "values": [
      {"compound": "CCOC(=O)c1ncc2c(c1COC)-c1cc(O)ccc1C2", "pIC50": 9.05},
      {"compound": "CCCOc1cc2c(cn1)Cc1ccccc1-2", "pIC50": 7.96},
      {"compound": "Nc1cc2c(cn1)Cc1ccccc1-2", "pIC50": 4.6},
      {"compound": "Oc1cc2c(cn1)Cc1ccccc1-2", "pIC50": 5.4},
      {"compound": "CCOC(=O)c1ncc2c(c1COC)-c1cc(OCc3ccccc3)ccc1C2C", "note": "(centres undefined)", "pIC50": 6.02},
      {"compound": "Clc1cc2c(cn1)Cc1ccccc1-2", "pIC50": 7.35},
      {"compound": "O=[N+]([O-])c1cc2c(cn1)Cc1ccccc1-2", "pIC50": 6.9},
      {"compound": "S=C=Nc1cc2c(cn1)Cc1ccccc1-2", "pIC50": 8.1},
      {"compound": "CCOC(=O)c1ncc2c(c1CC)-c1cc(OCc3ccccc3)ccc1C2", "pIC50": 7.66},
      {"compound": "CCOC(=O)c1cc2c(cn1)Cc1ccc(OCc3ccccc3)cc1-2", "pIC50": 8.05},
      {"compound": "CCOC(=O)c1ncc2c(c1COC)-c1cc(OCc3ccccc3)ccc1C2", "pIC50": 9},
      {"compound": "COc1cc2c(cn1)Cc1ccccc1-2", "pIC50": 6.91},
      {"compound": "CCOC(=O)c1ncc2c(c1COC)-c1cc(OC)ccc1C2", "pIC50": 9.3},
      {"compound": "CCOC(=O)c1ncc2c(c1COC)-c1ccccc1C2", "pIC50": 8.64},
      {"compound": "CCOc1cc2c(cn1)Cc1ccccc1-2", "pIC50": 7.62},
      {"compound": "COC(=O)c1cc2c(cn1)Cc1ccccc1-2", "pIC50": 8.3},
      {"compound": "c1ccc2c(c1)Cc1cnccc1-2", "pIC50": 5.79}
    ]},
    {"test": "Displacement of [3H]diazepam from benzodiazepine receptor in rat brain", "assay_type": "tissue-based", "values": [
      {"compound": "CN(C)c1ncnc2c1ncn2Cc1ccccc1Cl", "pIC50": 4.89},
      {"compound": "CN(C)c1ncnc2c1nc(Br)n2Cc1cccc(NS(C)(=O)=O)c1", "pIC50": 5.82},
      {"compound": "CN(C)c1ncnc2c1nc(O)n2Cc1cccc(NC=O)c1", "pIC50": 6.89},
      {"compound": "CNc1nc2c(N(C)C)ncnc2n1Cc1cccc(NC=O)c1", "pIC50": 6.44},
      {"compound": "CN(C)c1ncnc2c1nc(O)n2Cc1cccc(N)c1", "pIC50": 5.74},
      {"compound": "CN(C)c1ncnc2c1nc(N(C)C)n2Cc1cccc(NC=O)c1", "pIC50": 6.96},
      {"compound": "CNc1nc2c(N(C)C)ncnc2n1Cc1ccccc1", "pIC50": 4.77},
      {"compound": "CN(C)c1ncnc2c1ncn2Cc1cccc(NC=O)c1", "pIC50": 7.47},
      {"compound": "CN(C)c1ncnc2c1nc(Cl)n2Cc1cccc(N)c1", "pIC50": 6.72},
      {"compound": "COC(=O)Nc1cccc(Cn2c(Br)nc3c(N(C)C)ncnc32)c1", "pIC50": 5.28},
      {"compound": "COc1nc2c(N(C)C)ncnc2n1Cc1cccc(N)c1", "pIC50": 6},
      {"compound": "CN(C)c1ncnc2c1nc(N(C)C)n2Cc1ccccc1", "pIC50": 5.24},
      {"compound": "COc1nc2c(N(C)C)ncnc2n1Cc1ccccc1", "pIC50": 5.27},
      {"compound": "CC(C)(C)OC(=O)c1cc2c3ccccc3nc-2c[nH]1", "pIC50": 8},
      {"compound": "CNc1nc2c(N(C)C)ncnc2n1Cc1cccc(N)c1", "pIC50": 5.14},
      {"compound": "c1ccc(COc2nccc3c2[nH]c2ccccc23)cc1", "pIC50": 6},
      {"compound": "CCOC(=O)c1cc2c(cn1)[nH]c1ccccc12", "pIC50": 8.3},
      {"compound": "CCc1nc(C(=O)OC)cc2c1[nH]c1ccccc12", "pIC50": 5.12},
      {"compound": "CCC(C)Oc1nccc2c1[nH]c1ccccc12", "note": "(centres undefined)", "pIC50": 6.33},
      {"compound": "CC(C)CCOc1nccc2c1[nH]c1ccccc12", "pIC50": 6.27},
      {"compound": "CC(C)Oc1cc2c(cn1)[nH]c1ccccc12", "pIC50": 6.29},
      {"compound": "CCCCOc1cc2c(cn1)[nH]c1ccccc12", "pIC50": 7.01},
      {"compound": "CC(C)(C)COc1nccc2c1[nH]c1ccccc12", "pIC50": 7.02},
      {"compound": "COc1cc2c(cn1)[nH]c1ccccc12", "pIC50": 6.91},
      {"compound": "Clc1cc2c(cn1)[nH]c1ccccc12", "pIC50": 7.35},
      {"compound": "CCOc1cc2c(cn1)[nH]c1ccccc12", "pIC50": 7.62},
      {"compound": "CCCOc1cc2c(cn1)[nH]c1ccccc12", "pIC50": 7.96},
      {"compound": "CC(C)(C)C(=O)c1nccc2c1[nH]c1ccccc12", "pIC50": 6.45},
      {"compound": "CC(C)COc1nccc2c1[nH]c1ccccc12", "pIC50": 7.03},
      {"compound": "CCCC(=O)c1cc2c(cn1)[nH]c1ccccc12", "pIC50": 7.64},
      {"compound": "CCCCc1cc2c(cn1)[nH]c1ccccc12", "pIC50": 6.64},
      {"compound": "O=[N+]([O-])c1cc2c3ccccc3nc-2c[nH]1", "pIC50": 6.9},
      {"compound": "CN(C)c1ncnc2c1nc(Br)n2Cc1cccc(NC=O)c1", "pIC50": 7.96},
      {"compound": "CN(C)c1ncnc2c1nc(N(C)C)n2Cc1cccc(N)c1", "pIC50": 6.22},
      {"compound": "Cc1nc2c(N(C)C)ncnc2n1Cc1ccccc1", "pIC50": 5.07},
      {"compound": "CN(C)c1ncnc2c1nc(Br)n2Cc1cccc(N)c1", "pIC50": 6.96},
      {"compound": "CC(=O)Nc1cccc(Cn2c(Br)nc3c(N(C)C)ncnc32)c1", "pIC50": 6.08},
      {"compound": "CN(C)c1ncnc2c1nc(Br)n2Cc1ccccc1", "pIC50": 5.52},
      {"compound": "CN(C)c1ncnc2c1nc(Br)n2Cc1cccc(NC(N)=O)c1", "pIC50": 7.6},
      {"compound": "CN(C)c1ncnc2c1nc(Br)n2Cc1cccc(NC(=O)c2ccccc2)c1", "pIC50": 5.1},
      {"compound": "CC(C)(C)COC(=O)c1cc2c3ccccc3nc-2c[nH]1", "pIC50": 6.12},
      {"compound": "CN(C)c1ncnc2c1ncn2Cc1ccccc1", "pIC50": 4.89},
      {"compound": "CN(C)c1ncnc2c1ncn2Cc1ccccc1F", "pIC50": 5.27},
      {"compound": "CN(C)c1ncnc2c1ncn2Cc1cccc(F)c1", "pIC50": 5.14},
      {"compound": "CN(C)c1ncnc2c1ncn2Cc1cccc(O)c1", "pIC50": 5.92},
      {"compound": "CN(C)c1ncnc2c1ncn2Cc1cccc(N)c1", "pIC50": 6.05},
      {"compound": "CC(=O)Oc1cccc(Cn2cnc3c(N(C)C)ncnc32)c1", "pIC50": 6.36},
      {"compound": "CN(C)c1ncnc2c1ncn2Cc1cccc(OC(=O)C(C)(C)C)c1", "pIC50": 5.8},
      {"compound": "COc1ccccc1Cn1cnc2c(N(C)C)ncnc21", "pIC50": 4.7},
      {"compound": "CN(C)c1ncnc2c1ncn2Cc1cccc(CO)c1", "pIC50": 5.3},
      {"compound": "COC(=O)c1cc2c(cn1)[nH]c1ccccc12", "note": "[BETA-CCM]", "pIC50": 8.3},
      {"compound": "Cc1nccc2c1[nH]c1ccccc12", "note": "[HARMAN]", "pIC50": 4.91},
      {"compound": "c1ccc2c(c1)[nH]c1cnccc12", "note": "[NORHARMANE]", "pIC50": 5.79}
    ]},
    {"test": "Displacement of [3H]flunitrazepam from benzodiazepine receptor in rat forebrain", "values": [
      {"compound": "CCCCc1c(OC)nc2nc(C(=O)c3ccccc3)cn2c1CC", "pIC50": 7.469},
      {"compound": "CCCCc1cc(OC)nc2nc(C(=O)c3ccccc3)cn12", "pIC50": 6.469},
      {"compound": "CCc1cc(OC)nc2nc(C(=O)c3ccccc3)cn12", "pIC50": 6.53},
      {"compound": "CCCc1c(SC)nc2nc(C(=O)c3ccccc3)cn2c1CC", "pIC50": 7.328},
      {"compound": "CCc1c(SC)nc2nc(C(=O)c3ccccc3)cn2c1C", "pIC50": 7.921},
      {"compound": "CCCc1c(OC)nc2nc(C(=O)c3ccccc3)cn2c1CC", "pIC50": 7.469},
      {"compound": "CSc1cc(C)n2cc(C(=O)c3ccccc3)nc2n1", "pIC50": 6.721},
      {"compound": "CCCc1c(OC)nc2nc(C(=O)c3ccccc3)cn2c1C", "pIC50": 7.071},
      {"compound": "COc1nc2nc(C(=O)c3ccccc3)cn2c(C)c1OC", "pIC50": 6},
      {"compound": "CCc1cn2cc(C(=O)c3ccccc3)nc2nc1OC", "pIC50": 5.824},
      {"compound": "C=CCc1c(SC)nc2nc(C(=O)c3ccccc3)cn2c1C", "pIC50": 8.097},
      {"compound": "CCCCc1c(OC)nc2nc(C(=O)c3ccccc3)cn2c1C", "pIC50": 7.377},
      {"compound": "CCc1c(OC)nc2nc(C(=O)c3ccccc3)cn2c1CC", "pIC50": 6.971},
      {"compound": "CCCc1cc(OC)nc2nc(C(=O)c3ccccc3)cn12", "pIC50": 6.272},
      {"compound": "COc1cc(C)n2cc(C(=O)c3ccccc3)nc2n1", "pIC50": 6.097},
      {"compound": "CCCc1cc(SC)nc2nc(C(=O)c3ccccc3)cn12", "pIC50": 7.051},
      {"compound": "COc1nc2nc(C(=O)c3ccccc3)cn2c(C)c1CC1=CC1", "pIC50": "7.523 and 7.347"},
      {"compound": "CCc1c(CC2=CC2)c(OC)nc2nc(C(=O)c3ccccc3)cn12", "pIC50": 7.377},
      {"compound": "CCc1c(OC)nc2nc(C(=O)c3ccccc3)cn2c1C", "note": "[DIVAPLON]", "pIC50": 7.252}
    ]}
  ]
}
